Measured values as given in the NIST ThermoML archive (doi:10.1021/je300848z).
± gives the expanded uncertainty stated by the source.

Conditions: Liquid; for vapor or sublimation pressure: Ebulliometric method (Recirculating still)

Cc1ccc(C)cc1 [1,4-dimethylbenzene]
vapor or sublimation pressure (379.85 K): 40 ± 0.34 kPa

CCCCC(CC)CCl (centres undefined) [1-chloro-2-ethylhexane]
vapor or sublimation pressure (371.05 K): 9.9 ± 0.2 kPa | vapor or sublimation pressure (375.35 K): 11.7 ± 0.2 kPa | vapor or sublimation pressure (385.85 K): 17.1 ± 0.2 kPa | vapor or sublimation pressure (394.25 K): 22.8 ± 0.2 kPa | vapor or sublimation pressure (399.5 K): 27.1 ± 0.2 kPa | vapor or sublimation pressure (403.5 K): 30.8 ± 0.2 kPa | vapor or sublimation pressure (405.85 K): 33.2 ± 0.2 kPa | vapor or sublimation pressure (411.9 K): 39.9 ± 0.2 kPa | vapor or sublimation pressure (412.05 K): 40 ± 0.2 kPa | vapor or sublimation pressure (419.05 K): 49.4 ± 0.3 kPa | vapor or sublimation pressure (425.2 K): 59 ± 0.3 kPa | vapor or sublimation pressure (431.15 K): 69.6 ± 0.3 kPa | vapor or sublimation pressure (436.65 K): 80.7 ± 0.3 kPa | vapor or sublimation pressure (441.45 K): 91.6 ± 0.3 kPa | vapor or sublimation pressure (445.4 K): 101.3 ± 0.3 kPa | Normal boiling temperature (Equilibrium Still): 172.2 ± 0.2 °C

CCCCC(CC)CO (centres undefined) [2-ethyl-1-hexanol]
vapor or sublimation pressure (427.2 K): 40 ± 0.34 kPa

CN1CCCC1=O [N-methylpyrrolidone]
vapor or sublimation pressure (441.8 K): 40 ± 0.34 kPa
